Measured values as given in patent US12440475B2, “Hodgkin lymphoma therapy” (priority 2016, dated 2025).

System: Hodgkin lymphoma cell lines
Experiment: Mitotic index and metaphases after EDO-S101 treatment, all cell lines
Type: cell-based, human
Method: The mitotic index and chromosomal aberrations for each of the cell lines were evaluated after treatment with either 20 μmol or 10 μmol EDO-S101 in DMSO. Each cell line was cultured at 37° C. in the presence of RPMI 1640 supplemented with 10% FCS and antibiotics. Colcemid (0.1 ug/ml) was added 2 h before harvesting and slides with chromosomes in metaphase were prepared following the standard methanol/acetic acid (3/1, v/v) procedure. The slides were stored at −20° C. until use.
FISH was performed using a combination of standard procedures from the recommended protocols for chromosome analysis, following telomere and centromere staining, using PNA probes. In all, 100 metaphases were scored per in vitro dose exposure.
The mitotic index was determined by measurement of the sum of all cells in prophase, metaphase, anaphase and telophase divided by the total number of cells.

Cn1c(CCCCCCC(=O)NO)nc2cc(N(CCCl)CCCl)ccc21 [EDO-S101]
metaphases observed (10 μmol): only a few metaphases of poor quality
metaphases observed (20 μmol, any cell line): No metaphases were observed
sensitivity in mitotic index assay (all Hodgkin lymphoma cell lines, 24 h of treatment): remarkably high sensitivity
